# Measured values published in PubChem BioAssay AID2060909 (Molecular Pharmacology Branch, DTP, NCI, 2025).
# Tested on: 362531-283-R-J2-PDC complex spheroid viability
# Experiment: Anticancer human tumor 362531-283-R-J2-PDC patient-derived colon adenocarcinoma cell line growth inhibition [RAS]
# Conditions: for IC50: curve of first compound; for viability, T/C: stronger effect = lower value
# Method in brief: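 Multi-cell-type spheroids: tumor cells plus HUVEC endothelial cells and mesenchymal stem cells. RAS-pathway inhibitors were combined with targeted agents, each dosed in half-log steps down from clinical Cmax, or from 10 microM when Cmax was unknown.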
# [1] = second compound 0.00316 µM, first compound 0.0316 µM
# [2] = second compound 0.00316 µM, first compound 0.1 µM
# [3] = second compound 0.00316 µM, first compound 0.316 µM
# [4] = second compound 0.00316 µM, first compound 1 µM
# [5] = second compound 0.00316 µM, first compound 3.16 µM
# [6] = second compound 0.00316 µM, first compound 10 µM
# [7] = second compound 0.01 µM, first compound 0.0316 µM
# [8] = second compound 0.01 µM, first compound 0.1 µM
# [9] = second compound 0.01 µM, first compound 0.316 µM
# [10] = second compound 0.01 µM, first compound 1 µM
# [11] = second compound 0.01 µM, first compound 3.16 µM
# [12] = second compound 0.01 µM, first compound 10 µM
# [13] = second compound 0.0316 µM, first compound 0.0316 µM
# [14] = second compound 0.0316 µM, first compound 0.1 µM
# [15] = second compound 0.0316 µM, first compound 0.316 µM
# [16] = second compound 0.0316 µM, first compound 1 µM
# [17] = second compound 0.0316 µM, first compound 3.16 µM
# [18] = second compound 0.0316 µM, first compound 10 µM
# [19] = second compound 0.1 µM, first compound 0.0316 µM
# [20] = second compound 0.1 µM, first compound 0.1 µM
# [21] = second compound 0.1 µM, first compound 0.316 µM
# [22] = second compound 0.1 µM, first compound 1 µM
# [23] = second compound 0.1 µM, first compound 3.16 µM
# [24] = second compound 0.1 µM, first compound 10 µM
# [25] = second compound 0.316 µM, first compound 0.0316 µM
# [26] = second compound 0.316 µM, first compound 0.1 µM
# [27] = second compound 0.316 µM, first compound 0.316 µM
# [28] = second compound 0.316 µM, first compound 1 µM
# [29] = second compound 0.316 µM, first compound 3.16 µM
# [30] = second compound 0.316 µM, first compound 10 µM
# [31] = second compound 1 µM, first compound 0.0316 µM
# [32] = second compound 1 µM, first compound 0.1 µM
# [33] = second compound 1 µM, first compound 0.316 µM
# [34] = second compound 1 µM, first compound 1 µM
# [35] = second compound 1 µM, first compound 3.16 µM
# [36] = second compound 1 µM, first compound 10 µM
# 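Also: spheroids exposed to the agents for 7 days before readout.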
# 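For viability, T/C in this document: luminescence viability as percent of DMSO vehicle control wells.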
smiles,measurement,setting,value
CCC(CC)c1cc(NC2CCC(N)C2)n2nccc2n1 (centres undefined) + C=CC(=O)N1CCN(c2nc(OCC3CCCN3C)nc3c(F)c(-c4nc(N)cc(C)c4C(F)(F)F)c(Cl)cc23)C(C)C1,IC50,second compound 0.00316 µM,4.14 µM
same,IC50,second compound 0.01 µM,4.69 µM
same,IC50,second compound 0.0316 µM,5.54 µM
same,IC50,second compound 0.1 µM,4.92 µM
same,IC50,second compound 0.316 µM,4.66 µM
same,IC50,second compound 1 µM,4.54 µM
same,"viability, T/C",[1],99.6%
same,"viability, T/C",[2],100%
same,"viability, T/C",[3],104%
same,"viability, T/C",[4],95.2%
same,"viability, T/C",[5],64.2%
same,"viability, T/C",[6],3.95%
same,"viability, T/C",[7],102%
same,"viability, T/C",[8],108%
same,"viability, T/C",[9],106%
same,"viability, T/C",[10],102%
same,"viability, T/C",[11],73.5%
same,"viability, T/C",[12],5.05%
same,"viability, T/C",[13],100%
same,"viability, T/C",[14],115%
same,"viability, T/C",[15],100%
same,"viability, T/C",[16],103%
same,"viability, T/C",[17],92.5%
same,"viability, T/C",[18],5.29%
same,"viability, T/C",[19],102%
same,"viability, T/C",[20],113%
same,"viability, T/C",[21],102%
same,"viability, T/C",[22],107%
same,"viability, T/C",[23],79.1%
same,"viability, T/C",[24],3.6%
same,"viability, T/C",[25],97%
same,"viability, T/C",[26],97.2%
same,"viability, T/C",[27],104%
same,"viability, T/C",[28],109%
same,"viability, T/C",[29],73.3%
same,"viability, T/C",[30],4.47%
same,"viability, T/C",[31],107%
same,"viability, T/C",[32],105%
same,"viability, T/C",[33],95.8%
same,"viability, T/C",[34],102%
same,"viability, T/C",[35],70.5%
same,"viability, T/C",[36],5.01%
Cc1nc(N2CCC3(CC2)COC(C)C3N)c(CO)nc1Sc1ccnc(N)c1Cl (centres undefined) + C=CC(=O)N1CCN(c2nc(OCC3CCCN3C)nc3c(F)c(-c4nc(N)cc(C)c4C(F)(F)F)c(Cl)cc23)C(C)C1,IC50,second compound 0.00316 µM,> 10 µM
same,IC50,second compound 0.01 µM,> 10 µM
same,IC50,second compound 0.0316 µM,> 10 µM
same,IC50,second compound 0.1 µM,> 10 µM
same,IC50,second compound 0.316 µM,> 10 µM
same,IC50,second compound 1 µM,> 10 µM
same,"viability, T/C",[1],111%
same,"viability, T/C",[2],102%
same,"viability, T/C",[3],103%
same,"viability, T/C",[4],94.3%
same,"viability, T/C",[5],83.5%
same,"viability, T/C",[6],69.2%
same,"viability, T/C",[7],110%
same,"viability, T/C",[8],101%
same,"viability, T/C",[9],97.5%
same,"viability, T/C",[10],86.3%
same,"viability, T/C",[11],85.9%
same,"viability, T/C",[12],77.5%
same,"viability, T/C",[13],111%
same,"viability, T/C",[14],111%
same,"viability, T/C",[15],99.3%
same,"viability, T/C",[16],96.8%
same,"viability, T/C",[17],81.5%
same,"viability, T/C",[18],73.8%
same,"viability, T/C",[19],117%
same,"viability, T/C",[20],104%
same,"viability, T/C",[21],98.4%
same,"viability, T/C",[22],92.4%
same,"viability, T/C",[23],82.4%
same,"viability, T/C",[24],79.8%
same,"viability, T/C",[25],111%
same,"viability, T/C",[26],101%
same,"viability, T/C",[27],118%
same,"viability, T/C",[28],89.2%
same,"viability, T/C",[29],88.5%
same,"viability, T/C",[30],79.3%
same,"viability, T/C",[31],108%
same,"viability, T/C",[32],111%
same,"viability, T/C",[33],101%
same,"viability, T/C",[34],86.1%
same,"viability, T/C",[35],83.1%
same,"viability, T/C",[36],68%
